These are literature values, as cited in patent US20020072734A1, “Chip systems for the controlled emission of substances having a chemosensory effect” (PHARMED HOLDING GMBH, priority 2000, published 2002).

Structures are written as SMILES. Where two headings read alike, the source gives them in different places.

The test system of series [1] is regio olfactoria. To be noted: mice; applied to the regio olfactoria.
The test system of series [2] is regio olfactoria. The settings on record: rats; applied to the regio olfactoria.

Take `CC[C@H](C)[C@@H]1NC(=O)[C@H](Cc2ccc(O)cc2)NC(=O)[C@@H](N)CSSC[C@@H](C(=O)N2CCC[C@H]2C(=O)N[C@@H](CC(C)C)C(=O)NCC(N)=O)NC(=O)[C@H](CC(N)=O)NC(=O)[C@H](CCC(N)=O)NC1=O` [oxytocin]: in series [1], the “rapid effects in the central nervous system (anxiety)” value is given as “relieved anxiety”; the “rapid effects in the central nervous system (depression, aggression)” value is “anti-depressive and anti-aggressive”. Moreover, in series [2], the “rapid effects in the central nervous system (anxiety)” value is “relieved anxiety”; the “rapid effects in the central nervous system (depression, aggression)” value was “anti-depressive and anti-aggressive”.
